Measurements published in patent publication EP3981864A1, “DETERGENT COMPOSITION” (priority 2020, dated 2022).

Experiments:
[1] = system: Mycolicibacterium fortuitum αDOX (SEQ ID NO: 14), fatty acid alpha-dioxygenase, K0VM18, N-terminal His-tag variant SEQ ID NO: 275 (comparative); experiment: Alpha-dioxygenase activity assay (oxygen consumption, TON); type: biochemical; conditions: fatty acid 100 µM, enzyme 6 ppm, 50 mM HEPES pH 9.0, 37°C; initial rate of oxygen consumption / enzyme concentration
Excerpt: (§1) Mycolicibacterium fortuitum αDOX (SEQ ID NO: 14) is a fatty acid alpha-dioxygenase that converts fatty acids into the corresponding 2-hydroperoxy fatty acids and is included as a comparative example of the present invention. A codon optimized gene (SEQ ID NO: 274) encoding for an alpha-dioxygenase variant (SEQ ID NO: 275), including an N-terminal amino acid sequence containing a His-tag was designed and synthesized by Genscript. After gene synthesis, the protein was expressed and purified. In brief, the complete synthetic gene sequence was subcloned into a pET30a vector using the NdeI/HindIII cloning sites. For heterologous expression, Escherichia coli BL21 (DE3) cells were transformed with the recombinant plasmid and a single colony was inoculated into LB medium containing kanamycin (50 mg/L). A pre-starter culture was then inoculated into flasks containing Magic Media (Thermo Fisher, Catalog # K6803) supplemented with kanamycin (50 mg/L) and incubated at 16 °C for 72 h. At an OD600nm = 0.5 - 1.0, 5-aminolevulinic acid (final concentration 0.5 mM) was added. Cells were harvested by centrifugation at 5000 rpm and 4°C and the pellet was lysed using a bacterial cell lysis buffer (B-PER - Themo Fisher, Waltham, MA). After centrifugation, the supernatant was collected, and the protein was purified by one-step purification using HisPur™ Ni-NTA Spin Columns (Thermo Scientific, Catalog # 88226) and standard protocols known in the art. […]
(§2) Reactions with alpha-dioxygenases were performed as follows. […] The reaction was incubated for up to 10 minutes at 37°C with 200 rpm agitation and the conversion was monitored using an oxygen sensor. The TON (in s-1) were calculated as the ratio between the initial rate of oxygen consumption (in µM/s) and the concentration of enzyme (in µM). […]

[2] = molecular target: T1, Pisum sativum αDOX (SEQ ID NO: 4), fatty acid alpha-dioxygenase, Q5GQ66, N-terminal His-tag variant SEQ ID NO: 255 (Pisum sativum, UniProt Q5GQ66); experiment: as above; type: biochemical; conditions: fatty acid 100 µM, enzyme 6 ppm, 50 mM HEPES pH 9.0, 37°C; initial rate of oxygen consumption / enzyme concentration
T1 construct: made in house; host or cells: Escherichia coli BL21 (DE3), pET30a
T1 sequence (Q5GQ66 1-643): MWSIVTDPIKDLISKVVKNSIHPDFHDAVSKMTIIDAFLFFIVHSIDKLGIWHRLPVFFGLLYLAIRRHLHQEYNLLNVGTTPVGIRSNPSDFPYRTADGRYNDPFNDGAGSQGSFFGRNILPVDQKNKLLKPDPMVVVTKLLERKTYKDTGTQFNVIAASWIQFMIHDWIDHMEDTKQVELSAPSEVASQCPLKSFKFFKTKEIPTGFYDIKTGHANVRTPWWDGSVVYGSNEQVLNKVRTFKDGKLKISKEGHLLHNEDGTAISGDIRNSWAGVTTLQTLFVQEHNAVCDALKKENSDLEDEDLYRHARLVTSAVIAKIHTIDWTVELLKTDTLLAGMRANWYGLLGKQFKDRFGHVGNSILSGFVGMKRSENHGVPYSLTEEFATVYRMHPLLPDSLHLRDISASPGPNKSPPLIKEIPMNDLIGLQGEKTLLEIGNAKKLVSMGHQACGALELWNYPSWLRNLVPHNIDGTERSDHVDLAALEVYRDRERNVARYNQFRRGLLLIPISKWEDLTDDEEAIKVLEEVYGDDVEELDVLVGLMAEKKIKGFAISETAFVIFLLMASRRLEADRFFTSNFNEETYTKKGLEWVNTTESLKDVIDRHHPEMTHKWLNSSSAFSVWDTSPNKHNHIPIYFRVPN
Excerpt: as §1, with “Pisum sativum” for “Mycolicibacterium fortuitum”, “4)” for “14)”, “an” for “a comparative”, “254)” for “274)”, “255),” for “275),”, “art. The protein was concentrated using a 10 kDa MW cutoff Amicon Ultra centrifugal filter unit (Millipore Sigma, Catalog# UFC901024), followed by desalting using a disposable PD-10 desalting column (GE Healthcare Life Sciences, Catalog# 17085101) and a buffer containing 50 mM Tris-HCl, 500 mM NaCl, and 10% Glycerol at pH 8.0.” for “art.”
as §2

In the case of CCCCCCCC/C=C\CCCCCCCC(=O)O [Oleic Acid], the “Oleic Acid, TON” value [1] is reported as 0.00 s⁻¹ and the “Oleic Acid, TON” value [2] is reported as 1.40 s⁻¹.

For CCCCCCCCCCCCCCCC(=O)O [Palmitic Acid], the “Palmitic Acid, TON” value [1] was 0.21 s⁻¹ and the “Palmitic Acid, TON” value [2] was 1.92 s⁻¹.

CCCCCCCCCCCCCCCCCC(=O)O [Stearic Acid] was tested, and the “Stearic Acid, TON” value [1] was 0.03 s⁻¹ and the “Stearic Acid, TON” value [2] was 0.80 s⁻¹.
